Key:
Assay type in all cases: in vivo, human
[1] = test system: panel of 10 persons; assay: Determination of the taste in toothpaste containing LAE (7,500 ppm); conditions: scale 1-no taste to 7-unbearable taste
Experimental: The evaluation of the taste was based on the article titled “Reduction of saltiness and bitterness after a chlorhexidine rinse”, Chem. Senses 26: 105-116 (2001). […] The organoleptic studies were performed with a panel of 10 persons who were trained in experiments involving the tasting of bitter constituents. The panel was asked to compare samples containing a cationic surfactant alone or combined with one or more masking agent. The members of the panel were asked to indicate which sample was less bitter, thereby taking into account the scale of values defined as given above. Determination of the taste in toothpaste. The toothpaste used is a standard opaque […] prepared by the addition of (in g): [table] […] A control sample contained LAE in a concentration of 7,500 ppm. The same concentration of LAE was present in all further investigated samples. […] The sweetening agents sorbitol and lactilol were investigated in the same test as described in example 11. The samples were prepared in similar manner, the concentration of LAE was 7,500 ppm.

[2] = test system: panel of 10 persons; assay: Organoleptic taste evaluation of LAE (200 ppm) with masking agents in carbonated juice drink; conditions: scale 1-no taste to 7-unbearable taste
Experimental: The combination of the test compound neohespiridin (NHDC) with LAE was investigated in a carbonated oral juice drink (a base sugar syrup with concentrated organic juice, manufactured by […] control solution of 200 ppm LAE in the juice drink was prepared. The test samples were prepared by direct dissolution of the test compound in the control solution. The test samples were compared with the control solution and with an untreated (blank) juice drink. The evaluation of the taste was based on the article titled “Reduction of saltiness and bitterness after a chlorhexidine rinse”, Chem. Senses 26: 105-116 (2001). […] The organoleptic studies were performed with a panel of 10 persons who were trained in experiments involving the tasting of bitter constituents. The panel was asked to compare samples containing a cationic surfactant alone or combined with one or more masking agent. The members of the panel were asked to indicate which sample was less bitter, thereby taking into account the scale of values defined as given above. The combination of LAE with only one masking agent, NAF®, was compared with a combination of several masking agents (one of these being NAF®) in carbonated orange juice drinks. The manner of determination of the organoleptic results is the same as described in example 1. The results are reported in the following table 3 where a solution A is compared with a solution B. Composition of solutions (all containing 200 ppm LAE): […] Different types of NAF® are investigated ([…] lemon, NAF® C Orange, etc., all produced by Ogawa). The carbonated orange juice drink is produced by Hausmann S.A.

[3] = test system: panel of 10 persons; assay: Taste masking effect on MDLA (200 ppm) in carbonated juice drink; conditions: scale 1-no taste to 7-unbearable taste
Experimental: The evaluation of the taste was based on the article titled “Reduction of saltiness and bitterness after a chlorhexidine rinse”, Chem. Senses 26: 105-116 (2001). […] The organoleptic studies were performed with a panel of 10 persons who were trained in experiments involving the tasting of bitter constituents. The panel was asked to compare samples containing a cationic surfactant alone or combined with one or more masking agent. The members of the panel were asked to indicate which sample was less bitter, thereby taking into account the scale of values defined as given above.

[4] = test system: consumer; assay: Organoleptic experiments (beverages, toothpaste, food matrix, cosmetic preparation); conditions: for neutralisation of the bitter taste of the cationic surfactant: high doses, combined with a cationic surfactant of formula (1), numerous experiments
[5] = test system: panel of 10 persons; assay: Determination of the taste masking in toothpaste containing MDLA (7,500 ppm); conditions: product 3,330 ppm + 7,500 ppm MDLA in toothpaste; scale 1-no taste to 7-unbearable taste
Experimental: The evaluation of the taste was based on the article titled “Reduction of saltiness and bitterness after a chlorhexidine rinse”, Chem. Senses 26: 105-116 (2001). […] The organoleptic studies were performed with a panel of 10 persons who were trained in experiments involving the tasting of bitter constituents. The panel was asked to compare samples containing a cationic surfactant alone or combined with one or more masking agent. The members of the panel were asked to indicate which sample was less bitter, thereby taking into account the scale of values defined as given above. Determination of the taste masking in toothpaste. The toothpaste used was produced in the manner described in example 11.

[6] = test compound 1,000 ppm + 200 ppm LAE in juice drink
[7] = test compound 60,000 ppm + 200 ppm LAE in juice drink
[8] = test compound 1,000 ppm + 200 ppm MDLA in juice drink
[9] = test compound 10,000 ppm + 200 ppm LAE in juice drink
[10] = test compound 10,000 ppm + 200 ppm MDLA in juice drink
[11] = sweetening agent 200,000 ppm + 7,500 ppm LAE in toothpaste
[12] = test compound 500 ppm + 200 ppm LAE in juice drink

CCCCCCCCCCCC(=O)N[C@@H](CCCN=C(N)N)C(=O)OCC.Cl [LAE, ethyl ester of the lauramide of the arginine monohydrochloride]
Organoleptic result ([1]; Control: 7,500 ppm LAE in toothpaste, no masking agent): 5.4

COc1ccc(CCC(=O)c2c(O)cc(O[C@@H]3O[C@H](CO)[C@@H](O)[C@H](O)[C@H]3O[C@@H]3O[C@@H](C)[C@H](O)[C@@H](O)[C@H]3O)cc2O)cc1O [NHDC]
Organoleptic results ([2]; test compound 1 ppm + 200 ppm LAE in juice drink): 2.5

N[C@@H](CCC(=O)[O-])C(=O)[O-].[Na+].[Na+] [sodium glutamate]
Organoleptic results [2, 6]: 5.0
Organoleptic results [2, 7]: 4.8
Organoleptic results [3, 8]: 5.4

OC[C@H]1O[C@@](CO)(O[C@H]2O[C@H](CO)[C@@H](O)[C@H](O)[C@H]2O)[C@@H](O)[C@@H]1O [sugar]
Organoleptic results [2, 9]: 5.0
Organoleptic results [2, 7]: 4.8
Organoleptic results [3, 10]: 5.1
neutralisation of the bitter taste of the cationic surfactant [4]: does not neutralise the bitter taste

CC(=O)[O-].[Na+] [sodium acetate]
Organoleptic results [2, 6]: 2.8
Organoleptic results [2, 9]: 2.3
Organoleptic results [3, 10]: 2.8

OC[C@H]1O[C@H](O[C@]2(CCl)O[C@H](CCl)[C@@H](O)[C@@H]2O)[C@H](O)[C@@H](O)[C@H]1Cl [Sucralose, sucralose]
Organoleptic results ([2]; test compound 5 ppm + 200 ppm LAE in juice drink): 2.7

OC[C@@H](O)[C@@H](O)[C@H](O)[C@@H](O)CO [Sorbitol, sorbitol]
Organoleptic result [1, 11]: 4.9
neutralisation of the bitter taste of the cationic surfactant [4]: does not neutralise the bitter taste

CCCCCCCCCCCCOS(=O)(=O)[O-].[Na+] [SDS, sodium dodecyl sulfate]
Organoleptic results ([2]; test compound 1,330 ppm + 200 ppm LAE in juice drink): 2.9
Organoleptic results ([2]; test compound 1,960 ppm + 200 ppm LAE in juice drink): 2.3
Organoleptic results ([2]; test compound 3,320 ppm + 200 ppm LAE in juice drink): 1.6
Organoleptic result ([1]; product 1,960 ppm + 7,500 ppm LAE in toothpaste): 2.9
Organoleptic result ([1]; product 3,330 ppm + 7,500 ppm LAE in toothpaste): 2.8
Organoleptic results ([3]; test compound 3,320 ppm + 200 ppm MDLA in juice drink): 2.6
Organoleptic result [5]: 2.9
taste of the toothpaste ([4]; cationic surfactant of formula (1) combined only with SDS, cosmetic preparation): smooth taste

lysozyme
Organoleptic results [2, 12]: 2.5
Organoleptic results ([2]; test compound 2,500 ppm + 200 ppm LAE in juice drink): 2
Organoleptic results ([3]; test compound 2,500 ppm + 200 ppm MDLA in juice drink): 2.7

OC[C@H]1O[C@@H]2O[C@H]3[C@H](O)[C@@H](O)[C@@H](O[C@H]4[C@H](O)[C@@H](O)[C@@H](O[C@H]5[C@H](O)[C@@H](O)[C@@H](O[C@H]6[C@H](O)[C@@H](O)[C@@H](O[C@H]7[C@H](O)[C@@H](O)[C@@H](O[C@H]8[C@H](O)[C@@H](O)[C@@H](O[C@H]1[C@H](O)[C@H]2O)O[C@@H]8CO)O[C@@H]7CO)O[C@@H]6CO)O[C@@H]5CO)O[C@@H]4CO)O[C@@H]3CO [β-cyclodextrin]
Organoleptic results [2, 6]: 2.1
Organoleptic result ([1]; product 2,000 ppm + 7,500 ppm LAE in toothpaste): 2.7

CC1(C)[C@@H](O[C@H]2O[C@H](C(=O)O)[C@@H](O)[C@H](O)[C@H]2O[C@@H]2O[C@H](C(=O)O)[C@@H](O)[C@H](O)[C@H]2O)CC[C@]2(C)[C@H]3C(=O)C=C4[C@@H]5C[C@@](C)(C(=O)O)CC[C@]5(C)CC[C@@]4(C)[C@]3(C)CC[C@@H]12 [Glycyrrhizinate, monoammonium glycyrrhizinate]
Organoleptic results ([2]; test compound 250 ppm + 200 ppm LAE in juice drink): 2.3
Organoleptic results [2, 12]: 2
Organoleptic results [2, 6]: 2
Organoleptic results [3, 8]: 2.4

OC[C@@H](O)[C@@H](O)[C@H](O)[C@H](O)CO [mannitol]
neutralisation of the bitter taste of the cationic surfactant [4]: does not neutralise the bitter taste

OC[C@@H](O)[C@@H](O[C@@H]1O[C@H](CO)[C@H](O)[C@H](O)[C@H]1O)[C@H](O)[C@@H](O)CO [Lactitol, lactitol]
Organoleptic result [1, 11]: 5.1
neutralisation of the bitter taste of the cationic surfactant [4]: does not neutralise the bitter taste
